Results as given in ChEMBL document CHEMBL1133318, “Isoniazid-related copper(II) and nickel(II) complexes with antimycobacterial in vitro activity. Part 9” (Bioorg Med Chem Lett, 2000).
≈ marks a conversion by molar mass, not a printed value.

Columns and labels:
[1] = system: Mycobacterium tuberculosis; experiment: In vitro anti-mycobacterial activity against Mycobacterium tuberculosis H37Rv (Rifampin and Isoniazid susceptible ATCC 27294 strain); format: functional; design: concentration or dose not given beside the values
[2] = system: Mycobacterium tuberculosis; experiment: In vitro antimicrobacterial activity to inhibit 90% of Mycobacterium tuberculosis H37Rv (Rifampin and Isoniazid susceptible ATCC 27294 strain), relative to that of controls; format: functional
Mycobacterium avium = experiment: In vitro anti-mycobacterial activity against Mycobacterium avium at 12.5 ug/mL; format: functional
Vero = experiment: Compound was tested for its cytotoxicity on Vero cells; format: functional, cell-based; conditions: Chlorocebus sabaeus
[3] = Safety index from cytotoxicity to that of minimal inhibitory concentration; format: toxicity; conditions: read-out: S.I

SMILES | Inhibition [1] | MIC [2] | inhibition at 12.5 µg/mL (Mycobacterium avium) | IC50 (Vero) | selectivity ratio [3]
COc1ccc(/C=N/NC(=O)c2ccncc2)cc1F | 99% | < 0.2 µg/mL | – | – | –
O=C(N/N=C/c1ccc(C(F)(F)F)cc1)c1ccncc1 | 100% | < 0.2 µg/mL | 82% | – | –
O=C(N/N=C/c1ccccc1F)c1ccncc1 | 100% | 0.05 µg/mL (≈ 0.206 µM) | – | 8.4 µg/mL (≈ 34.5 µM) | 168
C/C(=N\NC(=O)c1ccncc1)c1ccc(Cl)c(Cl)c1 | 100% | < 0.2 µg/mL | – | – | –
O=C(N/N=C(\c1ccccc1)C(F)(F)F)c1ccncc1 | 100% | 6.25 µg/mL (≈ 21.3 µM) | – | – | –
C/C(=N\NC(=O)c1ccncc1)C(F)(F)F | 99% | 0.05 µg/mL (≈ 0.216 µM) | – | – | –
O=C(N/N=C/C(F)(F)F)c1ccncc1 | 100% | 0.05 µg/mL (≈ 0.23 µM) | – | – | –
C/C(=N\NC(=O)c1ccncc1)c1ccccc1F | 100% | 0.2 µg/mL (≈ 0.777 µM) | – | > 125 µg/mL | > 625
C/C=N/NC(=O)c1ccncc1 | 99% | 0.025 µg/mL (≈ 0.153 µM) | – | – | –
C/C(=N\NC(=O)c1ccncc1)c1ccc(F)cc1 | 99% | < 0.2 µg/mL | – | > 10 µg/mL | > 50
O=C(N/N=C/c1cccc(F)c1)c1ccncc1 | 99% | < 0.2 µg/mL | 82% | > 6.25 µg/mL | > 31.2
O=C(N/N=C/c1cccc(C(F)(F)F)c1)c1ccncc1 | 99% | 0.1 µg/mL (≈ 0.341 µM) | – | > 10 µg/mL | > 100
C/C(=N\NC(=O)c1ccncc1)c1cccc(F)c1 | 100% | < 0.05 µg/mL | – | – | –
NNC(=O)c1ccncc1 [ISONIAZID] | – | 0.05 µg/mL (≈ 0.365 µM) | – | > 1000 µg/mL | –
CO[C@H]1/C=C/O[C@@]2(C)Oc3c(C)c(O)c4c(O)c(c(/C=N/N5CCN(C)CC5)c(O)c4c3C2=O)NC(=O)/C(C)=C\C=C\[C@H](C)[C@H](O)[C@@H](C)[C@@H](O)[C@@H](C)[C@H](OC(C)=O)[C@@H]1C [RIFAMPIN] | – | 0.06 µg/mL (≈ 0.0729 µM) | – | 147 µg/mL (≈ 179 µM) | –
